Experimental data taken from US10836792B2, “Retro-inverso peptide inhibitors of cell migration, extracellular matrix and endothelial invasion by tumor cells” (ISTITUTO NAZIONALE TUMORI IRCCS “FONDAZIONE G. PASCALE”, priority 2016, dated 2020).
Non-standard residues stand in square brackets, D forms with d. Residues, ends and D or L forms follow the SMILES beside them. Aib = CC(C)(N)C(=O)O

Experiments:
[1] = Stability in human serum, read out by HT1080 matrigel invasion in Boyden chambers; type: in vitro ADME; conditions: 10^−3 mol/L in serum 18 hrs at 37° C., then 10 nM, invasion 6 hrs
Experimental: FIG. 7 The retro-inverso peptide RI-3 is stable when pre-incubated in bovine (A) or human serum (B) as assessed in real time using the xCELLigence technology (A) or in Boyden chambers (B) (Example 7).
The stability of the retro-inverso peptide RI-3 in bovine and human serum was investigated through incubation of the peptide at a 10^−3 mol/L in serum for 18 hrs at 37° C. HT1080 cells were allowed to migrate toward DMEM (CTRL), 10% FBS (None), 10% FBS plus 10 nM RI-3 or 10% FBS with 10 nM RI-3 pre-incubated with bovine serum and the impedance values were automatically monitored in real time by the xCELLigence system for 18 hrs and expressed as cell index. Data represent the means from a quadruplicate experiment representative of 2 replicates. […] The stability of RI-3 in human serum was further investigated in cell invasion experiments performed in Boyden chambers. HT1080 cells were allowed to invade matrigel for 6 hrs, toward DMEM (CTRL), 10% FBS (None), 10% FBS plus 10 nM RI-3 or 10% FBS with 10 nM RI-3 pre-incubated with human serum. For quantitative analysis of cell invasion, the basal value assessed in the absence of FBS (CTRL) was taken as 100% and all values were reported relative to that. Data are the means±SD from a triplicate experiment. *Statistical significance was calculated against None with p<0.005. […]

[2] = tested on: primary ovarian cancer cells derived from a tumor excision (OV-53); experiment: Matrigel invasion (xCELLigence RTCA), OV-53; type: cell-based, human; conditions: 10 nM, 20 hrs
Experimental: FIG. 8 At the concentration of 10 nM the retro-inverso peptide RI-3 prevents matrigel invasion of tumor cells from human osteosarcoma Saos-2 (A), chondrosarcoma Sarc (B), melanoma A375 (C), metastatic melanoma A375M6 (D), ovarian carcinoma SKOV-3 cells (E), or primary ovarian cancer cells derived from a tumor excision (OV-53) (F), as monitored in real-time for 20 hr as changes in cell index by the xCELLigence RTCA system (Example 8).
To investigate the ability of RI-3 to prevents matrigel invasion of tumor cells form different tissue origins, human osteosarcoma Saos-2 (A), chondrosarcoma Sarc (B) melanoma A375 (C), metastatic melanoma A375M6 (D), ovarian carcinoma SKOV-3 cells (E) or primary ovarian cancer cells derived from a tumor excision (OV-53) (F) were seeded on polymerized matrigel and allowed to invade matrigel in the absence (None) or in the presence of 10 nM RI-3. Cell invasion was monitored in real-time for 20 hrs as changes in cell index by the xCELLigence RTCA system. Data represent mean±SD from quadruplicate experiments. All cell lines were able to cross matrigel, although to a different extent. In all case RI-3 reduced matrigel invasion by about 30%, 31%, 64%, 57%, 53% and 68%, of Saos-2, Sarc, A375, A375M6, SKOV-3 and OV-53 cells, respectively.

HT1080 cells = experiment: FBS-directed migration of HT1080 cells in Boyden chambers; type: cell-based, human; conditions: 10 nM peptide, 10% FBS, 4 hrs
Experimental: FIG. 4 Retro-inverso peptides inhibit FBS-directed migration of HT1080 cells in a dose dependent manner (Example 4).
To assess whether retro-inverso peptides exert some effect on directional cell migration, HT1080 cells were allowed to migrate for 4 hrs in Boyden chambers toward serum-free medium (CTRL), 10% FBS (None) or 10% FBS mixed with peptides, each tested at 10 nM concentration. For quantitative analysis, the basal values assessed in the absence of FBS (CTRL) was taken as 100% and all values were reported relative to that. Data are the means±SD of two independent experiments, performed in triplicate. Statistical significance calculated against None with *p<0.01, **p<0.001 (A). All retro-inverso peptides caused a reduction of FBS-directed cell migration although to different extent. Peptides RI-1, RI-2, RI-3, RI-4 and RI-5 reduced by 49%, 46%, 65%, 9% and 6%, respectively, the extent of FBS-directed cell migration. Similar results were obtained when, HT1080 cell migration was monitored in real time for 18 hrs at 37° C., 5% CO2 by the xCELLigence system. Data represent mean±SD from a quadruplicate experiment representative of 2 replicates (B). Then, HT1080 cells were allowed to migrate in Boyden chambers toward 10% FBS plus increasing concentrations of RI-3, and data were expressed as a percentage of cells migrated toward FBS alone (100%) Inhibitory effect of RI-3 is dose-dependent, it starts in the high fM range, it seems to level off in the nM range and reaches an overall 50% reduction at 1×10^−13M (C).

human Sarc cells = experiment: Human Sarc cell tumors in the flank of CD1 nude mice; type: in vivo; conditions: 6 mg/Kg i.p. every day for 10 days
Experimental: FIG. 11 The intraperitoneal (i.p.) administration of 6 mg/Kg of the retro-inverso peptide RI-3 every day for 10 days reduces in vivo tumor growth and vascular infiltration by human chondrosarcoma Sarc cells in nude mice. (A) Time-dependent average of treated and control mice. (B) Tumor volumes measured at different time points. (C) Tumors excised after 10 days. (D) CD31 immuno-staining of formalin fixed paraffin sections of the excised tumors. (E) Counts of vascular channels harboring red blood cells on CD31 immuno-stained sections. (F) Quantification of Circulating Tumor Cells (CTCs). (Example 11)
Ten six-eight week old, CD1 female nude mice received the injection of human Sarc cells as a single-cell suspension (1×10^6 cells in 100 μl PBS, 96% viability) into the right flank. Five animals received i.p-administration of 6 mg/Kg RI-3 every day for 10 days, and five received injections of vehicle only (CTRL). A. Time-dependent average weight was monitored every two days. B. Tumor volumes measured at different time points with a caliper, using the formula: ½×(width)^2×length (mm). After 10 days, blood samples (˜500 μL/mouse) from the retroorbital venous plexus of mice were collected and processed for determination of Circulating Tumor Cells (CTC)s. Then, animals were sacrificed and the excised tumors (C) were fixed in buffered formalin and processed for paraffin sectioning. Tumor vascularization was assessed by counting vascular channels harbouring red blood cells on CD31 immuno-stained sections (D) in 5 randomly chosen fields per section, in at least two sections per tumor at ×200 (E). To quantify CTCs, DNA from nucleated cells of murine blood samples was purified and quantitated by Real-Time PCR using primers targeting human Alu-sequences. Number of CTCs was calculated by comparing the obtained amplification curves with others generated in spiking experiments, which were included in every run (F).
Tumor volumes of vehicle- and RI-3-treated mice were 445+/−285 and 112+/−41 mm^3, respectively, with p<0.05 (B). After 10 days, animals were sacrificed and tumors excised (C). According with the ability of RI-3 to prevent in vitro formation of a capillary network, the intratumoral microvessel density was reduced in tumors from animals treated with RI-3 as compared to those treated with vehicle alone (D-E).

## CC(=O)N[C@H](Cc1ccc(O)cc1)C(=O)N[C@H](CCCNC(=N)N)C(=O)NC(C)(C)C(=O)N[C@H](CCCNC(=N)N)C(N)=O [RI-3, Ac-(D)-Tyr-(D)-Arg-Aib-(D)-Arg-NH2] (Ac-[dY][dR][Aib][dR]-NH2)
[1]
  inhibitory activity retained after pre-incubation with human serum: 81%
[2]
  reduction of matrigel invasion: ~68%
HT1080 cells
  reduction of the extent of FBS-directed cell migration: 65%
Human Sarc cells
  body weight: without clear changes in body weight
  mice with CTCs in blood samples: 3/5
  reduction of the number of circulating sarcoma cells in murine blood samples: 74.5%
  signs of toxicity: no signs of toxicity
  tumor volume: 112+/−41 mm^3
Human Sarc cells; blood after 10 days
  Circulating Tumor Cells in blood: 2.4+/−2 CTCs/mL
Human Sarc cells; vs vehicle
  intratumoral microvessel density (CD31): reduced
